Data: patent US20060270631A1, “Methods for the treatment and prevention of angiogenic diseases” (priority 2005, published 2006)

What was measured:
[1] = tested on: endogenous SK; experiment: Cellular S1P formation assay in human chondrocytes (HC); type: cell-based; conditions: HCs; read-out: drug concentration that decreases S1P formation by 50%
Procedure: (§1) Cellular S1P formation assay. Cells were grown to confluency in 24-well tissue culture plates and serum-starved for 24 hours as described above. Cells were then treated with 1% DMSO (as the drug vehicle), 20 μM dimethylsphingosine, or the indicated concentration of an SK inhibitor for 4 hours. The cells were then incubated with [^3H]sphingosine for 15 minutes, and the formation of [^3H]S1P was measured as previously described (French et al., Cancer Res 63: 5962 (2003)). In some assays, the cells were serum-starved for 24 hours and then treated with VEGF (50 ng/mL) alone or in the presence of an SK inhibitor for an additional 12 hours. [^3 H]Sphingosine was then added for 15 minutes, and its conversion to [^3H]S1P was measured as indicated above.
(§2) A cell-based assay in which the phosphorylation of exogenously added [^3H]sphingosine to [^3H]S1P by endogenous SK can be quantified (French et al., Cancer Res 63: 5962 (2003)) was used to evaluate the effects of test compounds on the activity of SK in intact cells. In this assay, cells are incubated with [^3 H]sphingosine for an appropriate period of time, and then [^3H]sphingosine and [^3H]S1P (formed by endogenous SK activity) are separated by extraction and levels of both species are determined by scintillation counting. […] Similarly, the enzymatic activity of SK in bovine RECs, and its sensitivity to SK inhibitors were assessed. […]

[2] = tested on: human RECs; experiment: Cytotoxicity assay (sulforhodamine) toward human RECs; type: cell-based; conditions: 12 or 14 hours, serum-starved human RECs
Procedure: FIG. 4. Toxicity of Compound II toward HRECs. Human RECs were serum-starved for 24 hours and then left untreated for 12 hours (▪) or incubated with 50 ng/mL VEGF (▴) for 14 hours in the presence of the indicated concentration of Compound II. These protocols were chosen to exactly match conditions in SK activity and proliferation experiments described below. After incubation, the percentages of cells that survived the treatment were determined. Values represent the mean i SD cell survival in triplicate samples in a typical experiment.
Cytotoxicity assays. Cells were grown to confluence in 96-well tissue culture plates and serum-starved for 24 hours as described above. Cells were then treated with varying concentrations of Compound II for 12 hours (to parallel the SK activity assays described above) or with varying concentrations of Compound II and 50 ng/mL of VEGF for 14 hours (to parallel the proliferation assays described below). Cell survival was determined using the sulforhodamine assay (Skehan et al., J Natl Cancer Inst 82: 1107 (1990)).
Since Compound II was the most efficacious inhibitor of SK in the RECs, this compound was used to characterize the biological effects of inhibiting SK in these cells. It was first necessary to determine the toxic effects of this compound toward cultures of RECs under conditions identical to subsequent signal studies. […]

[3] = tested on: endogenous SK; experiment: Cellular S1P formation assay in HFLS-RA cells; type: cell-based, human; conditions: read-out: drug concentration that decreases S1P formation by 50%
Procedure: as §1, §2

[4] = tested on: human RECs; experiment: Matrigel microvessel (tube) formation by human RECs; type: cell-based; conditions: control and VEGF-treated (50 ng/mL) cultures, 18 hours
Procedure: Since VEGF-mediated angiogenesis and vascular leakage are critical processes in the pathology of diabetic retinopathy, we evaluated the effects of Compound II on the VEGF-induced formation of microvessels by human RECs. The basement membrane-like substrate, Matrigel (Becton-Dickinson, Franklin Lakes, N.J.), was used to induce vessel-like tube formation from human RECs as in previous studies with other cell types (Lee et al., Cancer Lett 208: 89 (2004)). Briefly, 300 μL of Matrigel was pipetted into 24 well plates and allowed to gel at 37° C. for 30 minutes. Human RECs were briefly trypsinized and plated onto the layer of Matrigel at an approximate density of 25,000 cells/cm^2. VEGF (50 ng/mL in PBS) with either DMSO or an SK inhibitor was added to the media immediately. After 18 hours at 37° C., images were digitally captured with a Retiga Ex camera with bright-field microscopy using a Nikon Eclipse TE300 microscope.

[5] = tested on: endogenous SK; experiment: VEGF-stimulated SK activity in bovine RECs; type: cell-based; conditions: VEGF 50 ng/mL, 12 hours, serum-starved bovine RECs
Procedure: FIG. 5. Effects of Compound II on VEGF-stimulated SK activity in RECs. Bovine RECs were serum-starved for 24 hours and then left untreated or incubated with VEGF (50 ng/mL) in the presence of DMS (D) or the indicated concentration (in μM) of Compound II for 12 hours. [^3H]Sphingosine was then added to the cells and its conversion to [^3H]S1P was determined. Values represent the mean±SD of duplicate samples in a typical experiment.
as §1
The effects of VEGF on SK activity in bovine RECs using the same cell-based assay as above, except that serum was removed from the cultures 24 hours before the addition of the SK inhibitor and VEGF were tested. […]

[6] = tested on: VEGF-induced vascular permeability; experiment: VEGF-induced vascular leakage (Miles assay) in nude mice; type: in vivo, mouse; conditions: 100 mg/kg intraperitoneal, FIG. 7A

IC50 [1]: 360 nM
IC50 [3]: 190 nM
Structure (SMILES): Oc1ccc(Nc2nc(-c3ccc(Cl)cc3)cs2)cc1 [Compound II]
cell kill ([2]; concentrations up to approximately 16 μM): < 10%
cell kill ([2]; concentrations up to at least 65 μM): less than 25%
formation of networks and tubes [4]: marked reduction
concentration completely inhibiting the SK activity response to VEGF [5]: ≥ 1.3 µM
inhibition of the in vivo vascular leakage response to VEGF [6]: more than 80%
